According to patent US9796674B2, “Benzyl urea derivatives for activating TGF-beta signaling” (THE BOARD OF TRUSTEES OF THE LELAND STANFORD JUNIOR …, priority 2013, dated 2017):
Read-outs that look alike come from different tables or passages of the source.

Experiments:
Assay type in all cases: in vivo
[1] = test system: FvB wildtype mice
Method: Excitotoxic injury model: Mice are injured with kainic acid and treated with different test compounds at two concentrations each to determine if they can reduce neurodegeneration and/or microglial activation. Wildtype mice on the FVB/N genetic background (8-weeks-old) are typically injured with kainic acid (Tocris, Ellisville, Mo.) dissolved in PBS and injected subcutaneously (s.q., 20 mg/kg). Seizure activity is scored from 0 to 5, with 0 corresponding to no behavioral changes and 5 corresponding to constant rearing and falling. Only kainate-injected mice reaching at least stage 3 are used for the studies. On day 5 following injury, mice are anesthetized, transcardially perfused with 0.9% saline, and brains harvested and dissected. One hemi-brain may be fixed for 24 hours in 4% paraformaldehyde and cryoprotected in 30% sucrose. Serial coronal sections (40 μm) can be cut with a freezing microtome (Leica, Allendale, N.J.) and stored in cryoprotective medium. One set of sections, representing different levels of the hippocampus, is used for the various stains. The other hemi-brain is dissected into hippocampus, cortex, thalamus, brain stem, and cerebellum. In this manner, the ability of test compounds to reduce neurodegeneration in kainate-injected mice can be assayed.
SRI-011381 is neuroprotective in a model of acute neurodegeneration: To study the potential neuroprotective effect of SRI-011381 in vivo, FvB wildtype mice were pre-treated with compound or vehicle for 3 days before excitotoxic injury was induced with kainic acid (10 mg/kg, SQ). Mice continued to receive daily injections of compound until they were sacrificed at day 5 after kainic acid injury. Brains were removed, fixed with paraformaldehyde, sectioned into […] sections using a cryomicrotome and stained with cresyl violet, or immunohistochemical methods. Sections for analysis of synaptophysin, MAP2, and NeuN were subjected to blinded confocal quantitative analysis of neurodegeneration.
To study the potential neuroprotective effect of SRI-011381, FvB wild-type mice were pre-treated with compound or vehicle for 3 days before excitotoxic injury was induced with kainic acid (10 mg/kg). Mice continued to receive daily injections of compound until they were sacrificed at day 5 after kainic acid injury. Kainic acid treatment alone caused a roughly 50% lethality in this experiment (lethality greatly varies in this model and is very difficult to control, but survivors from experiments with greater than 25% lethality typically show significant neurodegeneration in the hippocampus).
Brains were removed, fixed with paraformaldehyde, sectioned into […] sections using a cryomicrotome and stained with cresyl violet, or immunohistochemical methods. Sections were analyzed for synaptophysin, MAP2, and NeuN by confocal quantitative analysis of neurodegeneration. All observers were completely blinded to the treatment conditions of the mice.

[2] = test system: APP751Lon,Swe transgenic mice; experiment: Efficacy in APP751Lon,Swe transgenic mouse model; settings: for Y-maze working memory (spontaneous alternations): po 3 times per week
Source text: Transgenic mouse models over-producing human APP-containing mutations found in families with autosomal dominant AD reproduce important aspects of AD, including amyloid plaques, neurodegeneration, and cognitive deficits. Transgenic mice which overexpress human APP751^V717I, K670M/N671L (aka London and Swedish mutations) in neurons under control of a Thy1.2 promoter, specifically Line 41 generated according to Rockenstein et al., (2001) J. Neurosci. Res. 66: 573-582, incorporated herein by reference in its entirety, develop amyloid pathology, neurodegeneration, and cognitive deficits (Rockenstein et al. 2001). These mice (short APP751^Lon,Swe) have been studied by multiple laboratories (Pickford et al. (2008) J. Clin. Invest. doi:10.1172/JCI33585; Knowles et al., (2009) J. Neuroscience 29: 10627-10637) and have been used as a model for drug development.
Compound SRI-011381 was dissolved in a vehicle containing 15% solutol and 85% water. The formulated compound was administered orally to APP751^Lon,Swe transgenic mice or littermate non-transgenic controls (male, 6.5-7.5 months of age) at 0 (vehicle only), 10, 30 mg/kg of body weight 3 times per week for 10 weeks (n=7-11 mice per group). Behavioral studies started at this point. Oral gavage of the compound continued throughout the course of the studies until the mice were sacrificed 17 weeks after treatment had been initiated (thus mice were treated for roughly 4 months total before they were sacrificed). Plasma samples were collected for future proteomic assays. One hemibrain was fixed in 4% PFA for 48 h and kept in 2% PFA at 4° C. for neuropathologcial analysis. The other hemibrain was snap frozen. Both the serum and frozen brain samples were placed into −80° C. freezer for long-term storage.
To determine the effects of SRI-011381 (381) treatment on AD-like pathology brains from APP751^Lon,Swe transgenic and non-transgenic littermate control mice treated with vehicle, 10 mg/kg, or 30 mg/kg of compound were sectioned into 40 μm free-floating sections with a vibratome. Brain sections were stained with antibodies against Aβ, phosphorylated tau (PHF1), calbindin, microtubule associated protein2 (MAP2), synaptophysin (SY38), NeuN, and Iba1. In addition, hippocampus and neocortex from one hemibrain from APP751^Lon,Swe mice were homogenized with guanidine, and levels of Aβ1-42 and Aƒβ1-x were measured by ELISA.

[3] = Dose escalation and 14-day MTD study in female FVB mice; settings: female, FVB, mouse, in vivo; daily oral dose for 14 days
Method: In Vivo Range Finding Toxicity Studies in Mice and Rats: Dose escalation and 14-day MTD study of SRI-011381 and SRI-011382 in female FVB mice: The objectives of this study were to determine the maximum tolerated dose (MTD) and a no observable adverse effect level (NOAEL) in female FVB mice following a daily oral dose administration for 14 consecutive days. An initial dose escalation was performed with intraperitoneal (ip), oral (po), and intravenous (iv) dose routes for a single-dose MTD of SRI-011381 and SRI-011382.
Subsequently, three dose levels (10, 30, and 75 mg/kg) and a vehicle control group were used in the 14-day oral dose administration to determine the MTD and NOAEL based on changes in bodyweight, clinical observations, serum chemistry, hematology and gross organ physiology in 5 female mice per treatment group.
The objectives of this study were to determine maximum tolerated dose (MTD) and a no observable adverse effect level (NOAEL) in female FVB mice following a daily oral dose administration for 14 consecutive days. After a dose escalation single dose study with doses up to 400 mg/kg, three dose levels were selected for the repeat dose study, 10, 30 and 75 mg/kg, administered […]. The MTD is the maximum dose administered that results in less than 10% body weight loss compared to controls and no other dose limiting adverse effects (e.g. clinical pathology).

[4] = one third of maximum tolerated dose

O=C(NC1CCCCC1)N(Cc1ccccc1)CC1CCNCC1 [SRI-011381, 1-Benzyl-3-cyclohexyl-1-(piperidin-4-ylmethyl)urea]
lethality after kainic acid ([1]; 10 mg/kg daily): significant reduction in lethality | calbindin loss reduced ([1]; kainic acid 10 mg/kg, day 5): 30% | neuronal damage reversed or prevented, all neuronal markers ([1]; kainic acid 10 mg/kg, day 5): at least 30% | reduction of CD68 expression ([1]; kainic acid 10 mg/kg, day 5): more than 20% | lethality after kainic acid ([1]; mouse, in vivo, 60 mg/kg): increase in lethality | pathology reduced: Cresyl violet [1, 4]: 54.0% | pathology reduced: D68 [1, 4]: 22.5% | pathology reduced: MAP-2 [1, 4]: 37.4% | pathology reduced: NeuN [1, 4]: 36.9% | pathology reduced: Synaptophysin [1, 4]: 67.5% | neurodegeneration (percentage of rescue) ([1]; systemic administration): reduces neurodegeneration by 6 markers | fear conditioning: context memory ([2]; 10 mg/kg): significantly improved | rescue of working memory deficit (Y-maze) ([2]; 10 mg/kg po 3 times per week, 10 weeks): > 50% | fear conditioning: cued memory to the tone ([2]; 10 or 30 mg/kg): no significant differences | fear conditioning: learning of the tone response (freezing, tone 4) ([2]; 10 or 30 mg/kg): completely absent | Aβ immunoreactivity in hippocampus and cortex ([2]; 10 or 30 mg/kg, about 4 months): trend was seen towards lower levels | Aβ levels by ELISA in hippocampus and cortex ([2]; 10 or 30 mg/kg, about 4 months): non-significant trends towards lower Aβ levels | increase in expression of PHF1 ([2]; 10 or 30 mg/kg, about 4 months): almost completely absent | level of Iba1 ([2]; 10 or 30 mg/kg, about 4 months): did not significantly change | levels of calbindin, synaptophysin, MAP-2 and NeuN ([2]; 10 or 30 mg/kg, about 4 months): significantly higher levels of these neuronal markers | fear conditioning: cued memory to the tone ([2]; 10 or 30 mg/kg, listed as 381): No freezing difference | fear conditioning: learning of the tone response (freezing, tone 4) ([2]; 10 or 30 mg/kg, listed as 381): significant increase in freezing | rescue of contextual memory deficit ([2]; oral): greater than 50% | Y-maze working memory (spontaneous alternations) ([2]; 10 weeks): not significantly impaired compared with littermate non-transgenic controls | Y-maze working memory (spontaneous alternations) ([2]; 10 weeks, listed as 381): improved | neurodegeneration ([2]; two dose levels, 4-month-period of treatment): marked amelioration of neurodegeneration | NOAEL at 14 days [3]: < 30 mg/kg
